According to patent US9670209B2 (ACADIA Pharmaceuticals Inc., priority 2013, dated 2017):
Marks after values point to notes of the source that are not given here.

Experiments:
[1] = target: human M1 muscarinic acetylcholine receptor (Homo sapiens (Human), UniProt P11229); assay: R-SAT (Receptor Selection and Amplification) assay, M1; assay type: cell-based
Protocol: (§1) Briefly, NIH-3T3 cells were grown in 96-well tissue culture plates to 70% to 80% confluence. Cells were transfected with plasmid DNAs using Superfect Reagent (QIAGEN, Valencia, Calif.) as per the manufacturer's protocols. […] Cells were then grown in a humidified atmosphere with 5% ambient CO2 for 4 to 6 days. Media were then removed from the plates, and beta-galactosidase activity was measured by the addition of o-nitrophenyl-D-galactopyranoside (in phosphate-buffered saline with 5% NP-40 detergent). […] All data represent the mean of three wells and were analyzed using the computer program Excel Fit, and EC50 determinations were made using least-squares fit analysis with GraphPad Software Inc. (San Diego, Calif.) software.

[2] = target: human M2 muscarinic acetylcholine receptor (Homo sapiens (Human), UniProt P08172); assay: R-SAT (Receptor Selection and Amplification) assay, M2; assay type: cell-based
Chain of human M2 muscarinic acetylcholine receptor (P08172 whole entry): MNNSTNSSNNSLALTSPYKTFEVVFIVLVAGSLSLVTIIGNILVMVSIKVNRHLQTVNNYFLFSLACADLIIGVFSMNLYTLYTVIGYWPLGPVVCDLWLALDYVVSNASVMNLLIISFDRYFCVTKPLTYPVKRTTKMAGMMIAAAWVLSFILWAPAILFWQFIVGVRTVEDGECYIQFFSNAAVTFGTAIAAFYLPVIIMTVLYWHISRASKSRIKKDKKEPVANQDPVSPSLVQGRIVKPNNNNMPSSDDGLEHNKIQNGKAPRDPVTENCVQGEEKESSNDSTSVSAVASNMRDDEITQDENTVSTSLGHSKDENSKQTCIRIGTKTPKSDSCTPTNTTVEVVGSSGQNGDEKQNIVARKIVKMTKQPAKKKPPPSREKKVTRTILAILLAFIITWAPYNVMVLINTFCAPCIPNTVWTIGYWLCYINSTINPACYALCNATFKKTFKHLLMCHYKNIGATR
Protocol: as §1

[3] = target: human M3 muscarinic acetylcholine receptor (Homo sapiens (Human), UniProt P20309); assay: R-SAT (Receptor Selection and Amplification) assay, M3; assay type: cell-based
Chain of human M3 muscarinic acetylcholine receptor (P20309 whole entry): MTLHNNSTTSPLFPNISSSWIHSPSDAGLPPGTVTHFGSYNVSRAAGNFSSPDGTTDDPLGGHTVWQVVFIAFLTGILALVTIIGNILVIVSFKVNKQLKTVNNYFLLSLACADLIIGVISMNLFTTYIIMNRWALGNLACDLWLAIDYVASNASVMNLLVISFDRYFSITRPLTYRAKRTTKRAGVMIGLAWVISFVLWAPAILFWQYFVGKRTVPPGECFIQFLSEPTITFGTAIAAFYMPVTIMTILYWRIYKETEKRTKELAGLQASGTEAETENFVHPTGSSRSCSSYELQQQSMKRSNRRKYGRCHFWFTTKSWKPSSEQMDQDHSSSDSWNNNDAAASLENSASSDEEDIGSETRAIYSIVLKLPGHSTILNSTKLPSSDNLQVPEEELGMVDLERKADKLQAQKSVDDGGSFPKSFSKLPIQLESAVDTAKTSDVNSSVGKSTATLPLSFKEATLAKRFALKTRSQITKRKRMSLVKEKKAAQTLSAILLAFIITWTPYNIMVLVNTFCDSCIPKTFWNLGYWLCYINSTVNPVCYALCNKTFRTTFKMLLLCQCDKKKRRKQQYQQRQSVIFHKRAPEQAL
Protocol: as §1

M1 muscarinic receptor = M1 muscarinic receptor (Homo sapiens (Human), UniProt P11229); assay: M1 GTPγS binding assay; assay type: biochemical;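 on Emax: efficacy relative to carbachol as 100%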
Chain of M1 muscarinic receptor (P11229 whole entry): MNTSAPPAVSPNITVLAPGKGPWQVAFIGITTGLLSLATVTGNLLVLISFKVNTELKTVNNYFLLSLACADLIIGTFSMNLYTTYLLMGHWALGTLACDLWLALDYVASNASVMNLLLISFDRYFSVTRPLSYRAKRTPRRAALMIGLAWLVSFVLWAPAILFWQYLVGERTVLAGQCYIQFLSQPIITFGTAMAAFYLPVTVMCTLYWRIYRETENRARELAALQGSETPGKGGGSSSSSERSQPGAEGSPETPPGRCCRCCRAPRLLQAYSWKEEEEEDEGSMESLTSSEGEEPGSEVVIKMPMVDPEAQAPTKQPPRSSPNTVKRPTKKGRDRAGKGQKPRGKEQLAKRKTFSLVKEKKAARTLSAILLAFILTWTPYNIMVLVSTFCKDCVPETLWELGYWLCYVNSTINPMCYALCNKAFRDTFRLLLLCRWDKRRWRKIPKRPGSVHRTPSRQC

tear secretion = assay: Tear secretion (phenol red thread) in mice; assay type: in vivo, balb/c mice
Protocol: The tear distance, in mm, is recorded. The mice were not anesthetized or otherwise sedated. […] Data are analyzed by repeated measures ANOVA with post-hoc Bonferroni comparisons to vehicle. […] Further details can be seen in FIG. 2.

[4] = Ocular pharmacokinetic evaluation in rabbits; assay type: in vivo, New Zealand White rabbits
Protocol: The experimental animals were normotensive male New Zealand White rabbits. A single drop (35 μl) of a compound, (302s), at a concentration of 0.126% (corrected for oxalate salt weight) was administered to each eye by pipette. At 0.25, 0.5, 1, 2, 4, 8, and 24 hours, plasma, aqueous humor, vitreous humor, cornea, iris-ciliary body, retina, and choroid were collected (2 rabbits/timepoint, or 4 eyes/timepoint). Approximately 0.5 ml of blood was collected and placed in EDTA tubes. Blood samples were kept on ice during the duration of sample collection, and centrifuged to harvest plasma. Animals were euthanized and ocular tissues were collected and placed in vials and kept on dry ice for the duration of the collections. All ocular tissue and plasma samples were stored at or below −60° C. until bioanalysis. […] The plasma concentration at most timepoints was >100-fold lower than the compound concentration in target ocular tissues (iris/ciliary body, cornea, retina). The concentration of compound 302s in the target ocular tissues remained at active levels up to at least 24 h. Abbreviations used in FIG. 3 have the following meanings AH (Aqueous Humor), VH (Vitreous Humor) ICB (Iris Ciliary Body), CenP Retina (Center Punch Retina), Per Retina (Peripheral Retina) CenP Choroid (Center Punch Choroid), and Per Choroid (Peripheral Choroid)

Chain of human M1 muscarinic acetylcholine receptor (P11229 whole entry): as above

With `C[C@H](CN1[C@@H]2CC[C@H]1C[C@@H](OCC1CC1)C2)Cn1ncc2ccccc21` [Compound 302S, 1-((R)-3-((1R,3R,5S)-3-(cyclopropylmethoxy)-8-azabicyclo[3.2.1]octan-8-yl)-2-methylpropyl)-1H-indazole] the “M1 PEC50 AVG” value ([1]; NIH-3T3 cells) was 8.9, the Emax ([1]; percent efficacy vs carbachol = 100 percent, read-out: M1 EFF % AVG) was 111% and the “M2 PEC50 AVG” value ([2]; R-SAT, NIH-3T3 cells) was 7.6. The Emax ([2]; read-out: M2 EFF % AVG) was 153%, the “M3 PEC50 AVG” value ([3]; R-SAT, NIH-3T3 cells) was 6.8 and the Emax ([3]; read-out: M3 EFF % AVG) was 12%. The “M1 GTPγS PEC50 AVG” value (M1 muscarinic receptor; GTPγS binding) was 8.5, the Emax (M1 muscarinic receptor; read-out: M1 GTPγS EFF % AVG) was 98% and the Tear secretion (tear secretion; first study of Table 2, 1 hr post-dosing, 5 μl drop of 0.1% to each eye) was 156% *. For the same molecule, the “Tear secretion compared to vehicle” value (tear secretion; pilocarpine 24-hour study, 3 and 6 hours post-dosing) was “statistically significant improved tear secretion”, the “Tear secretion compared to vehicle” value (tear secretion; pilocarpine 24-hour study, 24 hours post-dosing) was “trend toward significance” and the “Enhancement of tear secretion compared to pilocarpine” value (tear secretion; pilocarpine 24-hour study, all time points) was “exceeded the effect of pilocarpine at all time points”. The Tear secretion (tear secretion; second study of Table 2, 1 hr post-dosing, 5 μl drop of 0.1% to each eye) was 157% *, the Tear secretion (tear secretion; second study of Table 2, 3 hr post-dosing, 5 μl drop of 0.1% to each eye) was 155% * and the Tear secretion (tear secretion; third study (pilocarpine 24-hour study), 3 hr post-dosing, 0.1% 5 μl drop, Pilocarpine 0.2% 20 μl drop) was 152% *. It also gave a Tear secretion (tear secretion; third study (pilocarpine 24-hour study), 6 hr post-dosing, 0.1% 5 μl drop, Pilocarpine 0.2% 20 μl drop) of 151% *, a Tear secretion (tear secretion; third study (pilocarpine 24-hour study), 24 hr post-dosing, 0.1% 5 μl drop, Pilocarpine 0.2% 20 μl drop) of 120% † and a Kp ([4]; male, New Zealand White, rabbit, retina (against plasma), topical, 35 μl of 0.126% per eye, most timepoints, iris/ciliary body, cornea, retina, read-out: Plasma concentration lower than concentration in target ocular tissues) of over 100. For the same molecule, the Tmax ([4]; male, New Zealand White, rabbit, topical, 35 μl of 0.126% per eye, all tissues, single 35 μl drop of 0.126% to each eye) was 15 min, the Cmax ([4]; male, New Zealand White, rabbit, topical, 35 μl of 0.126% per eye, plasma, single 35 μl drop of 0.126% to each eye, read-out: Maximal plasma concentration (Cmax)) was 6.4 ng/g and the “Time the concentration in the target ocular tissues remained at active levels” value ([4]; target ocular tissues, single topical drop) was “at least 24 h”.
